These results are taken from US8288552B2, “Dihydropyridone amidesas P2X7 modulators” (Roche Palo Alto LLC, priority 2008, dated 2012).

In the assay the target is T1, P2X7 (UniProt Q99572).
T1 sequence (Q99572 1-595): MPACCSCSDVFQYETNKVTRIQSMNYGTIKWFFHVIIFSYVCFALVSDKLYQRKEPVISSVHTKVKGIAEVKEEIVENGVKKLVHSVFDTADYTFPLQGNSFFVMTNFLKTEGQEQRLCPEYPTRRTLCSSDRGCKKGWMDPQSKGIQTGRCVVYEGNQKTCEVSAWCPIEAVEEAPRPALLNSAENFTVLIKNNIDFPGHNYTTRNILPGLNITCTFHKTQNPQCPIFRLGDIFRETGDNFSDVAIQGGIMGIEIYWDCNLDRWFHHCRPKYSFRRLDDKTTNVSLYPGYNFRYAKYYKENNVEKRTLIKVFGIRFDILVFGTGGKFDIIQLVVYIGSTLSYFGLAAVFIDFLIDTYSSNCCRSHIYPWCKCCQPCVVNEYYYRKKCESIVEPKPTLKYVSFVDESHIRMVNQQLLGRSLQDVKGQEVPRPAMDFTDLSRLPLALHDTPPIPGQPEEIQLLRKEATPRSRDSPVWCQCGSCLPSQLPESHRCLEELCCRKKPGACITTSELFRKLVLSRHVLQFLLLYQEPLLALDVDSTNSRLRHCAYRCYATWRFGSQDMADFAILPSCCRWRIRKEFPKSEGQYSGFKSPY
Kind of assay: P2X7 pKi of Table 1. Format: cell-based. In a few lines: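 Human P2X7 in 1321N1 cells and rat P2X7 in HEK293 cells, loaded with fluo-3 for 1 hr at 37° C, then exposed to antagonist for 20 min at room temperature. BzATP agonist was used at 100 μM final (human) or 5 μM final (rat), with fluorescence read for 5 min. The response was normalized to maximal fluorescence evoked by 5 μM ionomycin.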
As for `COc1cccc(NC(=O)C2=CNC(=O)C[C@H]2c2ccc(F)cc2)c1C` [Compound 106, (S)-4-(4-Fluoro-phenyl)-6-oxo-1,4,5,6-tetrahydro-pyridine-3-carboxylic acid(3-methoxy-2-methyl-phenyl)-amide], the pKi is listed as 7.375.
For the molecule `Cc1c(CO)cccc1NC(=O)C1=CNC(=O)C[C@@H]1c1ccc(F)cc1` [Compound 107, (R)-4-(4-Fluoro-phenyl)-6-oxo-1,4,5,6-tetrahydro-pyridine-3-carboxylic acid(3-hydroxymethyl-2-methyl-phenyl)-amide], the negative-log Ki (pKi) was 5.36.
The molecule `COc1cc(NC(=O)C2=CNC(=O)C[C@H]2c2ccc(F)cc2)ccc1F` [Compound 108, (S)-4-(4-Fluoro-phenyl)-6-oxo-1,4,5,6-tetrahydro-pyridine-3-carboxylic acid(4-fluoro-3-methoxy-phenyl)-amide] came in with a pKi of 6.11.
Molecule `COc1cc(NC(=O)C2=CNC(=O)C[C@H]2c2ccc(F)cc2)c(Br)cc1F` [Compound 109, (S)-4-(4-Fluoro-phenyl)-6-oxo-1,4,5,6-tetrahydro-pyridine-3-carboxylic acid(2-bromo-4-fluoro-5-methoxy-phenyl)-amide] had a pKi of 7.15.
Turning to `Cc1c(NC(=O)C2=CNC(=O)C[C@H]2c2ccc(F)cc2)cccc1C(=O)N(C)C` [Compound 110, (S)-4-(4-Fluoro-phenyl)-6-oxo-1,4,5,6-tetrahydro-pyridine-3-carboxylic acid(3-dimethylcarbamoyl-2-methyl-phenyl)-amide], the pKi is 5.43.
The result for `COc1ccc(NC(=O)C2=CNC(=O)C[C@H]2c2ccc(F)cc2)c(C)c1` [Compound 111, (S)-4-(4-Fluoro-phenyl)-6-oxo-1,4,5,6-tetrahydro-pyridine-3-carboxylic acid(4-methoxy-2-methyl-phenyl)-amide] reads 6.5; that for `Cc1cc(Cl)c(CCO)cc1NC(=O)C1=CNC(=O)C[C@H]1c1ccc(F)cc1` [Compound 112, (S)-4-(4-Fluoro-phenyl)-6-oxo-1,4,5,6-tetrahydro-pyridine-3-carboxylic acid[4-chloro-5-(2-hydroxy-ethyl)-2-methyl-phenyl]-amide], 7.52; that for `COc1cc(C)c(C)c(NC(=O)C2=CNC(=O)C[C@H]2c2ccc(F)cc2)c1` [Compound 113, (S)-4-(4-Fluoro-phenyl)-6-oxo-1,4,5,6-tetrahydro-pyridine-3-carboxylic acid(5-methoxy-2,3-dimethyl-phenyl)-amide], 8.035.
`Cc1cc(C)c(OCCO)cc1NC(=O)C1=CNC(=O)C[C@H]1c1ccc(F)cc1` [Compound 114, (S)-4-(4-Fluoro-phenyl)-6-oxo-1,4,5,6-tetrahydro-pyridine-3-carboxylic acid [5-(2-hydroxy-ethoxy)-2,4-dimethyl-phenyl]-amide] returned a pKi of 7.815.
Take `Cc1c(C#N)cccc1NC(=O)C1=CNC(=O)C[C@H]1c1ccc(F)cc1` [Compound 115, (S)-4-(4-Fluoro-phenyl)-6-oxo-1,4,5,6-tetrahydro-pyridine-3-carboxylic acid(3-cyano-2-methyl-phenyl)-amide]: the pKi is given as 5.815.
The molecule `Cc1cc(Cl)c(OCC(C)O)cc1NC(=O)C1=CNC(=O)C[C@H]1c1cccc(F)c1` (stereo partly drawn) [Compound 116, (S)-4-(3-Fluoro-phenyl)-6-oxo-1,4,5,6-tetrahydro-pyridine-3-carboxylic acid[4-chloro-5-(2-hydroxy-propoxy)-2-methyl-phenyl]-amide] returned a pKi of 7.21.
`Cc1cc(Cl)c(OCC(C)O)cc1NC(=O)C1=CNC(=O)C[C@H]1c1cccc(F)c1` (stereo partly drawn) [Compound 117, (S)-4-(3-Fluoro-phenyl)-6-oxo-1,4,5,6-tetrahydro-pyridine-3-carboxylic acid[4-chloro-5-(2-hydroxy-propoxy)-2-methyl-phenyl]-amide] had a pKi of 7.06.
`CCc1cc(Cl)c(OC)cc1NC(=O)C1=CNC(=O)C[C@H]1c1ccc(F)cc1` [Compound 118, (S)-4-(4-Fluoro-phenyl)-6-oxo-1,4,5,6-tetrahydro-pyridine-3-carboxylic acid(4-chloro-2-ethyl-5-methoxy-phenyl)-amide] yielded a pKi of 7.075.
`Cc1ccc(C(C)O)cc1NC(=O)C1=CNC(=O)C[C@H]1c1cccc(F)c1` (stereo partly drawn) [Compound 119, (S)-4-(3-Fluoro-phenyl)-6-oxo-1,4,5,6-tetrahydro-pyridine-3-carboxylic acid[5-(1-hydroxy-ethyl)-2-methyl-phenyl]-amide] gave a pKi of 7.2.
Molecule `Cc1ccc(NC(=O)C2=CNC(=O)C[C@H]2c2cccc(F)c2)cc1C(C)O` (stereo partly drawn) [Compound 120, (S)-4-(3-Fluoro-phenyl)-6-oxo-1,4,5,6-tetrahydro-pyridine-3-carboxylic acid[3-(1-hydroxy-ethyl)-4-methyl-phenyl]-amide] returned a pKi of 6.635.
The result for `Cc1c(NC(=O)C2=CNC(=O)C[C@H]2c2ccc(F)cc2)cc(OCCO)c(F)c1F` [Compound 121, (S)-4-(4-Fluoro-phenyl)-6-oxo-1,4,5,6-tetrahydro-pyridine-3-carboxylic acid [3,4-difluoro-5-(2-hydroxy-ethoxy)-2-methyl-phenyl]-amide] reads 7.41.
Next, `COc1cc(C)c(NC(=O)C2=CNC(=O)CC2c2ccc(Cl)cc2)cc1OC` (stereo not shown) [Compound 122, 4-(4-Chloro-phenyl)-6-oxo-1,4,5,6-tetrahydro-pyridine-3-carboxylic acid(4,5-dimethoxy-2-methyl-phenyl)-amide]: 6.465; `CCc1cc(Cl)c(OCCO)cc1NC(=O)C1=CNC(=O)C[C@H]1c1ccc(F)cc1` [Compound 123, (S)-4-(4-Fluoro-phenyl)-6-oxo-1,4,5,6-tetrahydro-pyridine-3-carboxylic acid[4-chloro-2-ethyl-5-(2-hydroxy-ethoxy)-phenyl]-amide]: 7.293.
The molecule `Cc1cc(Cl)c(CN(CCO)CCO)cc1NC(=O)C1=CNC(=O)C[C@H]1c1ccc(F)cc1` [Compound 124, (S)-4-(4-Fluoro-phenyl)-6-oxo-1,4,5,6-tetrahydro-pyridine-3-carboxylic acid(5-{[bis-(2-hydroxy-ethyl)-amino]-methyl}-4-chloro-2-methyl-phenyl)-amide] had a pKi of 6.75.
The molecule `COC(=O)COc1cc(NC(=O)C2=CNC(=O)C[C@H]2c2ccc(F)cc2)c(C)cc1Cl` [Compound 125, (2-Chloro-5-{[(S)-4-(4-fluoro-phenyl)-6-oxo-1,4,5,6-tetrahydro-pyridine-3-carbonyl]-amino}-4-methyl-phenoxy)-acetic acid methyl ester] yielded a negative-log Ki (pKi) of 7.645.
As to `COc1cc(C)c(NC(=O)C2=C(C)NC(=O)CC2c2ccc(F)cc2)cc1OC` (stereo not shown) [Compound 126, 4-(4-Fluoro-phenyl)-2-methyl-6-oxo-1,4,5,6-tetrahydro-pyridine-3-carboxylic acid (4,5-dimethoxy-2-methyl-phenyl)-amide], the pKi came to 6.48.
Next, `COc1cc(C)c(NC(=O)C2=C(C)NC(=O)CC2c2ccc(C(F)(F)F)cc2)cc1OC` (stereo not shown) [Compound 127, 2-Methyl-6-oxo-4-(4-trifluoromethyl-phenyl)-1,4,5,6-tetrahydro-pyridine-3-carboxylic acid(4,5-dimethoxy-2-methyl-phenyl)-amide]: 5.055.
`O=C1C[C@@H](c2ccc(F)cc2)C(C(=O)Nc2cccc(Cl)c2Cl)=CN1` [Compound 128, (S)-4-(4-Fluoro-phenyl)-6-oxo-1,4,5,6-tetrahydro-pyridine-3-carboxylic acid (2,3-dichloro-phenyl)-amide] yielded a negative logarithm of the Ki (pKi) of 6.75.
The molecule `Cc1cc(Cl)c(NC(=O)C2=CNC(=O)C[C@H]2c2ccc(F)cc2)cc1OCCO` [Compound 129, (S)-4-(4-Fluoro-phenyl)-6-oxo-1,4,5,6-tetrahydro-pyridine-3-carboxylic acid[2-chloro-5-(2-hydroxy-ethoxy)-4-methyl-phenyl]-amide] yielded a pKi of 7.265.
As to `Cc1cc(Cl)c(OCC(=O)N(C)C)cc1NC(=O)C1=CNC(=O)C[C@H]1c1ccc(F)cc1` [Compound 130, (S)-4-(4-Fluoro-phenyl)-6-oxo-1,4,5,6-tetrahydro-pyridine-3-carboxylic acid(4-chloro-5-dimethylcarbamoyl-methoxy-2-methyl-phenyl)-amide], the pKi is 7.2767.
Turning to `COc1cc(C)c(NC(=O)C2=CNC(=O)C[C@H]2c2ccc(Cl)cc2)cc1OC` [Compound 131, (S)-4-(4-Chloro-phenyl)-6-oxo-1,4,5,6-tetrahydro-pyridine-3-carboxylic acid (4,5-dimethoxy-2-methyl-phenyl)-amide], the pKi was determined as 6.165.
As to `COc1cc(C)c(NC(=O)C2=CNC(=O)C[C@@H]2c2ccc(Cl)cc2)cc1OC` [Compound 132, (R)-4-(4-Chloro-phenyl)-6-oxo-1,4,5,6-tetrahydro-pyridine-3-carboxylic acid (4,5-dimethoxy-2-methyl-phenyl)-amide], the pKi was determined as 6.38.
In turn, `COc1ccc(NC(=O)C2=CNC(=O)C[C@H]2c2ccc(F)cc2)cc1OC` [Compound 133, (S)-4-(4-Fluoro-phenyl)-6-oxo-1,4,5,6-tetrahydro-pyridine-3-carboxylic acid (3,4-dimethoxy-phenyl)-amide] came in with a pKi of 6.04.

By pKi is commonly meant the negative decadic logarithm of the Ki, by convention in mol/L.
